In ChEMBL document CHEMBL4840370, “Irilone, a Red Clover Isoflavone, Combined with Progesterone Enhances PR Signaling through the Estrogen and Glucocorticoid Receptors” (J Nat Prod, 2021):
The source made the active and inactive calls. The calls are words filed in the database; no cut-off is given here.

Tests used:
[1] = target: T1, Estrogen receptor (Homo sapiens) (UniProt P03372); test: Induction of estrogen receptor in human T47D cells assessed as increase in PR-A protein expression at 10 uM incubated for 24 hrs in presence of SERM, 4-OH-TAM by western blot analysis; type: cell-based
T1 sequence (whole entry): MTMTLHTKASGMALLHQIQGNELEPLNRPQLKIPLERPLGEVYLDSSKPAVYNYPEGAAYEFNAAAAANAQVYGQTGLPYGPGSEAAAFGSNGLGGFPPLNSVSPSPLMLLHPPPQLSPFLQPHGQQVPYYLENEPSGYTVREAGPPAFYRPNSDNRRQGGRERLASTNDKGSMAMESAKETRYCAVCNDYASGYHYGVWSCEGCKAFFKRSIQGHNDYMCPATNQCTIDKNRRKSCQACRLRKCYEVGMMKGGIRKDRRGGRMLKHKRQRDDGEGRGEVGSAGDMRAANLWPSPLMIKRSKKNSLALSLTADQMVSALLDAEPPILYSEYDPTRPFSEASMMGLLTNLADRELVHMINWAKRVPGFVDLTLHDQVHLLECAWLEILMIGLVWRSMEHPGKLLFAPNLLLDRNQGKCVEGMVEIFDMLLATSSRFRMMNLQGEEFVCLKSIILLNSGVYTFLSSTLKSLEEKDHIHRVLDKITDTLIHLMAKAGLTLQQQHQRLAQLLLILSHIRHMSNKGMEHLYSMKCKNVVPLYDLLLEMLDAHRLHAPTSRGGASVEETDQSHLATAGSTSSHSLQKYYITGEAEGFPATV

OVCAR-5 [2] = test: Repression of dexamethasone-induced HRE/Luc activity in human OVCAR-5 cells at 10 uM incubated for 24 hrs by luciferase reporter gene assay; type: functional
[3] = target: T1, Estrogen receptor (Homo sapiens); test: Induction of estrogen receptor in human T47D cells assessed as potentiation of progesterone transcriptional activity by measuring increase in HRE-Luc activity at 10 uM measured after 24 hrs in presence of 5 nM progesterone by HRE-dependent dual luciferase reporter gene assay; type: cell-based; details: filed as activator
Ishikawa [4] = test: Induction of HRE/Luc activity in human Ishikawa null cells at 10 uM incubated for 24 hrs by luciferase reporter gene assay; type: functional, cell-based
[5] = target: T2, Glucocorticoid receptor (Homo sapiens) (UniProt P04150); test: Induction of glucocorticoid receptor in human Ishikawa PR-B cells assessed as increase in HRE-luc activity at 10 uM measured after 24 hrs by HRE-dependent dual luciferase reporter gene assay relative to control; type: cell-based; details: filed as activator
T2 sequence (whole entry): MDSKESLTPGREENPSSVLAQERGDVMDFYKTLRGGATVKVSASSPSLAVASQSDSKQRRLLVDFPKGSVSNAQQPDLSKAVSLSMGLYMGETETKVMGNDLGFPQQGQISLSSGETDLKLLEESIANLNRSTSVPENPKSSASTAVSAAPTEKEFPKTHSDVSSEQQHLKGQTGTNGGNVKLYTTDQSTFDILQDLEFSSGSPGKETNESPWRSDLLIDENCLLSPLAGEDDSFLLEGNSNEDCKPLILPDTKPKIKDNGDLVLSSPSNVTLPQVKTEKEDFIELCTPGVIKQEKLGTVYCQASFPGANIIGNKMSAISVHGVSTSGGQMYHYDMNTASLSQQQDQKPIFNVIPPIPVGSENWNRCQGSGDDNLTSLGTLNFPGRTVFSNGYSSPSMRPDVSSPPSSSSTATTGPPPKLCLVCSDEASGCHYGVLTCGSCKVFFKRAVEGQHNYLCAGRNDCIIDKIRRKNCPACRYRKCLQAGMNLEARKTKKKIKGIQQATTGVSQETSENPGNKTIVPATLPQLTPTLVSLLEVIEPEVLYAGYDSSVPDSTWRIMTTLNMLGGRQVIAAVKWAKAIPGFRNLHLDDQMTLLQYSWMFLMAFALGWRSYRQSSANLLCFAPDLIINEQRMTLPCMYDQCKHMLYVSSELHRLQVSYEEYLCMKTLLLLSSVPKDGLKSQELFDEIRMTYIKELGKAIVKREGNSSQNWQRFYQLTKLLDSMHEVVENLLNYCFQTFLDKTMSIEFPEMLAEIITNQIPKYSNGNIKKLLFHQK

Ishikawa [6] = test: Potentiation of progesterone receptor signalling in human Ishikawa null cells transfected with wild type PR assessed as induction of HRE/uc activity at 10 uM incubated for 24 hrs by luciferase reporter gene assay relative to control; type: functional
T47D [7] = test: Effect on PR-B phosphorylation at Ser294 residue in human T47D cells at 10 uM incubated for 60 mins by western blot analysis; type: functional, cell-based
Ishikawa [8] = test: Decrease in PR-B protein expression in human Ishikawa PR-B cells at 10 uM incubated for 24 hrs in presence of 100 nM progesterone by western blot analysis; type: functional, cell-based
[9] = target: T1, Estrogen receptor (Homo sapiens); test: Induction of estrogen receptor in human T47D cells assessed as increase in PR-B protein expression at 10 uM incubated for 24 hrs by western blot analysis; type: cell-based; details: filed as activator
OVCAR-5 [10] = test: Increase in GR protein expression in human OVCAR-5 cells at 10 uM incubated for 24 hrs by western blot analysis; type: functional, cell-based
[11] = target: T2, Glucocorticoid receptor (Homo sapiens); test: Induction of glucocorticoid receptor in human Ishikawa PR-B cells transfected with scrambled siRNA assessed as potentiation of progesterone signalling by measuring increase in HRE/Luc activity at 10 uM incubated for 24 hrs in presence of progesterone by luciferase reporter gene assay relative to control; type: cell-based; details: filed as activator
[12] = target: T1, Estrogen receptor (Homo sapiens); test: Induction of estrogen receptor in human T47D cells assessed as increase in PR-A protein expression at 10 uM incubated for 24 hrs by western blot analysis; type: cell-based; details: filed as activator
[13] = Induction of epithelial cells proliferation in uterus of ovariectomized CD-1 mouse at 4 mg/kg, ip administered once a day for 7 days in presence of progesterone and measured on day 7 at 6 hrs post-last dosage by PCNA staining based immunohistochemistry (reference value: 7%); type: organism-based; details: in vivo, 168 h, time 7 day
T47D [14] = test: Effect on R5020-induced PR-A phosphorylation at Ser294 residue in human T47D cells at 10 uM incubated for 60 mins by western blot analysis; type: functional, cell-based
[15] = target: T2, Glucocorticoid receptor (Homo sapiens); test: Agonist activity at GR in human OVCAR-5 cells assessed as induction of HRE/Luc activity at 1 to 10 uM incubated for 24 hrs by luciferase reporter gene assay; type: cell-based; details: dose 1-10 µM
[16] = target: T2, Glucocorticoid receptor (Homo sapiens); test: Induction of glucocorticoid receptor in human Ishikawa PR-B cells assessed as potentiation of progesterone transcriptional activity by measuring increase in HRE-Luc activity at 10 uM measured after 24 hrs in presence of 5 to 100 nM progesterone by HRE-dependent dual luciferase reporter gene assay; type: cell-based; details: filed as activator
Ishikawa [17] = test: Increase in PR-A protein expression in human Ishikawa PR-B cells at 10 uM incubated for 24 hrs in presence of 100 nM progesterone by western blot analysis; type: functional, cell-based
[18] = target: T1, Estrogen receptor (Homo sapiens); test: Induction of estrogen receptor in human T47D cells assessed as increase in PR-B protein expression at 10 uM incubated for 24 hrs in presence of SERM, 4-OH-TAM and progesterone by western blot analysis; type: cell-based
T47D [19] = test: Effect on R5020-induced PR-B phosphorylation at Ser294 residue in human T47D cells at 10 uM incubated for 60 mins by western blot analysis; type: functional, cell-based
[20] = target: T1, Estrogen receptor (Homo sapiens); test: Induction of estrogen receptor in human T47D cells assessed as increase in ERE/Luc activity at 10 uM measured after 24 hrs by luciferase reporter gene assay relative to control; type: cell-based; details: filed as activator
Ishikawa [21] = test: Decrease in PR-A protein expression in human Ishikawa PR-B cells at 10 uM incubated for 24 hrs in presence of 100 nM progesterone by western blot analysis; type: functional, cell-based
[22] = target: T1, Estrogen receptor (Homo sapiens); test: Induction of estrogen receptor in human T47D cells assessed as increase in PR-A protein expression at 10 uM incubated for 24 hrs in presence of SERM, 4-OH-TAM and progesterone by western blot analysis; type: cell-based
Ishikawa [23] = test: Effect on PR-B protein expression in human Ishikawa PR-B cells at 10 uM incubated for 24 hrs by western blot analysis; type: functional, cell-based
[24] = target: T1, Estrogen receptor (Homo sapiens); test: Induction of estrogen receptor in human T47D cells assessed as increase in PR-B protein expression at 10 uM incubated for 24 hrs in presence of progesterone by western blot analysis; type: cell-based
OVCAR-5 [25] = test: Repression of dexamethasone-induced HRE/Luc activity in human OVCAR-5 cells at 1 to 5 uM incubated for 24 hrs by luciferase reporter gene assay; type: functional, cell-based; details: dose 1-5 µM
[26] = target: T1, Estrogen receptor (Homo sapiens); test: Induction of estrogen receptor in human T47D cells assessed as increase in PR-B protein expression at 10 uM incubated for 24 hrs in presence of SERM, 4-OH-TAM by western blot analysis; type: cell-based
Ishikawa [27] = test: Increase in GR protein expression in human Ishikawa PR-B cells at 10 uM incubated for 24 hrs by western blot analysis; type: functional, cell-based
[28] = Induction of HRE/Luc activity in human Ishikawa PR-B cells transfected with GR siRNA at 10 uM incubated for 24 hrs in presence of progesterone by luciferase reporter gene assay relative to control; type: functional
[29] = Induction of epithelial cells proliferation in uterus of ovariectomized CD-1 mouse at 4 mg/kg, ip administered once a day for 7 days and measured on day 7 at 6 hrs post-last dosage by PCNA staining based immunohistochemistry (reference value: 33.3%); type: organism-based; details: in vivo, 168 h, time 7 day
Ishikawa [30] = test: Increase in PR-B protein expression in human Ishikawa PR-B cells at 10 uM incubated for 24 hrs in presence of 100 nM progesterone by western blot analysis; type: functional, cell-based
[31] = target: T1, Estrogen receptor (Homo sapiens); test: Induction of estrogen receptor in human T47D cells assessed as increase in HRE-luc activity at 10 uM measured after 24 hrs by HRE-dependent dual luciferase reporter gene assay relative to control; type: cell-based; details: filed as activator
[32] = target: T1, Estrogen receptor (Homo sapiens); test: Induction of estrogen receptor in human T47D cells assessed as increase in PR-A protein expression at 10 uM incubated for 24 hrs in presence of progesterone by western blot analysis; type: cell-based
Mus musculus = test: In vivo potentiation of progesterone signalling in ovariectomized CD-1 mouse assessed as increase in FKBP5 expression in reproductive tract at 4 mg/kg, ip administered once a day for 7 days in presence of progesterone and measured on day 7 at 6 hrs post-last dosage by immunohistochemistry; type: functional, organism-based; details: time 7.0 day
Ishikawa [33] = test: Effect on PR-A protein expression in human Ishikawa PR-B cells at 10 uM incubated for 24 hrs by western blot analysis; type: functional, cell-based
Ishikawa [34] = test: Induction of HRE/Luc activity in human Ishikawa null cells at 10 uM incubated for 24 hrs in presence of progesterone by luciferase reporter gene assay; type: functional, cell-based
Ishikawa [35] = test: Potentiation of progesterone signalling in human Ishikawa null cells transfected with wild type PR assessed as induction of HRE/uc activity at 10 uM incubated for 24 hrs in presence of progesterone by luciferase reporter gene assay relative to control; type: functional
T47D [36] = test: Effect on PR-A phosphorylation at Ser294 residue in human T47D cells at 10 uM incubated for 60 mins by western blot analysis; type: functional, cell-based

Activity [1]: inactive
Activity [3]: Active
fold change (FC) [5]: 1.2
Activity [9]: Active
fold change (FC) [11]: 44
Activity [12]: Active
Activity [15]: inactive
Activity [16]: Active
Activity [18]: inactive
fold change (FC) [20]: 4
Activity [22]: inactive
Activity [24]: inactive
Activity [26]: inactive
fold change (FC) [31]: 1.07
Activity [32]: inactive
SMILES: O=c1c(-c2ccc(O)cc2)coc2cc3c(c(O)c12)OCO3
inhibition at 10 µM (OVCAR-5 [2]): 22%
Activity (Ishikawa [4]): inactive
fold change (FC) (Ishikawa [6]): 5.8
Activity (T47D [7]): inactive
inhibition (Ishikawa [8]): inactive
Activity (OVCAR-5 [10]): inactive
Activity [13]: 0.93%
Activity (T47D [14]): inactive
Activity (Ishikawa [17]): inactive
Activity (T47D [19]): inactive
inhibition (Ishikawa [21]): inactive
Activity (Ishikawa [23]): inactive
inhibition (OVCAR-5 [25]): inactive
Activity (Ishikawa [27]): Active
fold change (FC) [28]: 30
Activity [29]: 18.4%
Activity (Ishikawa [30]): inactive
Activity (Mus musculus): inactive
Activity (Ishikawa [33]): inactive
Activity (Ishikawa [34]): inactive
fold change (FC) (Ishikawa [35]): 38
Activity (T47D [36]): inactive
